According to PMC7719383 (Clinical and Translational Science, 2020):
Like-named read-outs stand apart in the source and are kept apart here.

Tests used:
Plasma pharmacokinetics = assay type: in vivo, human; settings: for effect of co‐administration on exposure: dinaciclib with MK‐2206; for Tmax: median
[1] = cited from earlier work
[2] = test system: patients with advanced pancreatic cancer; assay type: in vivo, human
pSer473 Akt = settings: lowest dose level tested (60 mg once weekly); cited from earlier work
[3] = A: Dinaciclib/combination N = 11

CCc1cnn2c(NCc3ccc[n+]([O-])c3)cc(N3CCCC[C@H]3CCO)nc12 [dinaciclib]
association between exposure (Cmax) and race (Plasma pharmacokinetics; African Americans and Asians vs white patients, P = 0.04): lower exposure
effect of co‐administration on exposure (Plasma pharmacokinetics): did not alter
recommended phase II dose ([1]; single agent): 12 mg/m^2
Dose reduction Dinaciclib [2, 3]: 2 (18%) n (%)
Dose reduction Dinaciclib ([2]; B: MK‐2206/combination N = 7): 0 (0%) n (%)
Dose reduction Dinaciclib ([2]; Dose escalation N = 21): 3 (14%) n (%)
maximum tolerated dose ([2]; dinaciclib i.v. weekly in combination with MK‐2206): 9 mg/m^2

NC1(c2ccc(-c3nc4ccn5c(=O)[nH]nc5c4cc3-c3ccccc3)cc2)CCC1 [MK‐2206]
C ss,min (Plasma pharmacokinetics; MK‐2206 alone, Expansion, arm B, MK‐2206 135 mg, dinaciclib 9 mg/m^2, mean ± SD): 48.0 ± 22.7 (7)
Tmax (Plasma pharmacokinetics; MK‐2206 alone, Expansion, arm B, MK‐2206 135 mg, dinaciclib 9 mg/m^2): 4 (2.17–25.17; 7) hour
T 1/2 (Plasma pharmacokinetics; MK‐2206 in combination, Expansion, arm B, dose reduced, MK‐2206 90 mg, dinaciclib 9 mg/m^2, n = 1): 64.5 (1) h
effect of co‐administration on exposure (Plasma pharmacokinetics): did not alter
half-life (Plasma pharmacokinetics; human, plasma, oral, 90 mg, T 1/2, MK‐2206 alone, Escalation, level 3, MK‐2206 90 mg, dinaciclib 12 mg/m^2, mean ± SD): 68.3 ± 16.6 h
Tmax (Plasma pharmacokinetics; human, plasma, oral, 90 mg, Tmax, MK‐2206 alone, Escalation, level 3, MK‐2206 90 mg, dinaciclib 12 mg/m^2): 5.97 h
half-life (Plasma pharmacokinetics; human, plasma, oral, 135 mg, T 1/2, MK‐2206 alone, Escalation, level 2.5, MK‐2206 135 mg, dinaciclib 9 mg/m^2, mean ± SD): 56.9 ± 9.7 h
Tmax (Plasma pharmacokinetics; human, plasma, oral, 135 mg, Tmax, MK‐2206 alone, Escalation, level 2.5, MK‐2206 135 mg, dinaciclib 9 mg/m^2): 4.5 h
half-life (Plasma pharmacokinetics; human, plasma, oral, T 1/2, MK‐2206 in combination, Expansion, arm A, MK‐2206 135 mg, dinaciclib 9 mg/m^2, mean ± SD): 69.7 ± 23.1 h
Tmax (Plasma pharmacokinetics; human, plasma, oral, Tmax, MK‐2206 in combination, Expansion, arm A, MK‐2206 135 mg, dinaciclib 9 mg/m^2): 10.2 h
Tmax (Plasma pharmacokinetics; human, plasma, oral, Tmax, MK‐2206 in combination, Expansion, arm B, MK‐2206 135 mg, dinaciclib 9 mg/m^2): 5.13 h
pSer473 Akt expression in tumor biopsies (pSer473 Akt): significant reduction
recommended phase II dose ([1]; once weekly): 200 mg
Dose reduction MK‐2206 [2, 3]: 0 (0%) n (%)
Dose reduction MK‐2206 ([2]; B: MK‐2206/combination N = 7): 1 (14%) n (%)
Dose reduction MK‐2206 ([2]; Dose escalation N = 21): 1 (5%) n (%)
maximum tolerated dose ([2]; MK‐2206 p.o. weekly in combination with dinaciclib): 135 mg
